Drawing on the METLIN SMRT retention time set (Domingo-Almenara et al. 2019), this text covers RP-LC retention time for 81 compounds.

This data set is described as follows: gradient 5% acetonitrile 3 min, to 50% in 2 min, to 85% in 15 min, held 3 min, 100 µL/min. The note with it: column: Zorbax Extend-C18 2.1 x 50 mm; eluents: water / acetonitrile, 0.1% formic acid. In a few lines:
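The system's dead and dwell volumes were 40 μL and 900 μL, with a Zorbax Extend-C18 column (2.1 × 50 mm, 1.8 μm) run at 100 μL/min in water and acetonitrile containing 0.1% formic acid each. Pure standards were analyzed in mixtures of ~100 molecules by HPLC–quadrupole time-of-flight mass spectrometry in positive and negative ionization mode. Retention time was assigned from computationally picked, manually inspected adduct peaks.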
`Cn1cccc(C(=O)NCCn2nc(-c3cccs3)ccc2=O)c1=O` showed an RP-LC retention time of 591 s.
To `CC(C)(C)C1CCc2[nH]nc(C(=O)N3CCc4nn(CC#N)c(=O)n4CC3)c2C1` (stereo unspecified) belongs 760 s.
To `CC(=O)Nc1nsc(N2CCC(C(=O)NCc3ccc(F)cc3Cl)CC2)n1` belongs 863 s; to `COc1ccc(C(=O)N2CCC3(CC2)NC(=O)c2cc(Cl)ccc2N3C)cc1`, 768 s.
To `Cc1cc(NC(=O)Cn2cnc3c(oc4ccccc43)c2=O)no1` belongs 668 s.
`O=C(NCC1CCS(=O)(=O)C1)c1cc(-c2ccccc2)on1` (stereo unspecified) showed an RP-LC retention time of 1010 s.
`CC(C)Oc1ccc(CNC(=O)c2ccc3c(c2)nc2n3CCN(C(C)C)C2=O)cc1` displayed an RP-LC retention time of 754 s.
To `COCc1nc(NCc2ccc(OC)c(OC)c2)ncc1C(=O)O` belongs 644 s; to `COc1ccccc1/C=C1\Cc2ccccc2C1=O`, 1140 s; to `Cc1ccc(C(=O)N2CCC3(CC2)N(C)C(=O)CS3(=O)=O)s1`, 614 s.
The same measure for `O=C(c1c[nH]c2ccccc12)N1CCCCC1c1nc(C2CC2)no1` (stereo unspecified): 866 s; for `OCCNCc1ccc(-c2cc(Cl)ccc2Cl)o1`: 657 s; for `O=C(Nc1ccccc1F)C1CCN(C(=O)c2ncn3c2COC(c2ccc(F)cc2)C3)CC1` (stereo unspecified): 738 s.
To `O=C1COc2ccccc2N1Cc1nc(-c2ccc(Cl)cc2)no1` belongs 1070 s.
`COCCNC(=O)NCCn1c(-c2ccc(C)cc2)nc2ccccc21` yielded an RP-LC retention time of 588 s.
For `COc1ccc(-c2noc(-c3nc(C(C)C)no3)n2)cc1OC`, the RP-LC retention time was determined as 1050 s.
The same measure for `Cc1cc(NC(=O)Cn2ccn3nc(-c4ccc(F)cc4)c(CO)c3c2=O)no1`: 727 s; for `Cc1ccc(C(=O)N2CCC3(CC2)NC(=O)c2ccc(F)cc2N3C)cc1`: 763 s; for `O=C(Cn1nc2c3ccccc3ncn2c1=O)NCCc1ccc(Cl)cc1`: 707 s.
To `Fc1ccc(-c2csc(Nc3ccc(Br)cn3)n2)cc1` belongs 1230 s; to `CN(C)c1cccc(-c2nc(C3CC(=O)N(c4ccc(F)cc4)C3)no2)c1` (stereo unspecified), 1030 s.
The same measure for `COc1cccc(NC(=O)CN2CCC(c3nc(-c4cccs4)no3)CC2)c1`: 680 s.
In turn, `CSc1ncn(-c2nc(NC(C)C)nc(NC(C)C)n2)n1` came in with an RP-LC retention time of 875 s.
For the compound `Cn1cccc1C(=O)N1CC(c2nc(CCOCC3CCCC3)no2)C1`, the RP-LC retention time was 934 s.
The same measure for `COC(=O)c1ccc(-c2nc3cnccn3c2Nc2ccc(C)c(Cl)c2)cc1`: 1050 s; for `COCCCNS(=O)(=O)c1ccccc1-c1nc(-c2cccc(F)c2)no1`: 1040 s.
For the compound `Cc1nn(C(C)C(=O)NC2CCCCC2)c(=O)c2nn(-c3ccccc3)c(C)c12` (stereo unspecified), the RP-LC retention time is 879 s.
The same measure for `Cc1ccc(NC(=O)C2CCCN2S(=O)(=O)c2cc3c(cc2C)NC(=O)C(C)O3)cc1F` (stereo unspecified): 860 s; for `Cc1ccc(C#CC(C)(O)C(C)(C)C)cn1` (stereo unspecified): 722 s; for `COc1ccc(S(=O)(=O)c2csc3c2NC(=O)CC3c2ccsc2)cc1` (stereo unspecified): 892 s.
Compound `COc1cc(C(=O)N2CCN(c3cc(N(C)C)nc(C)n3)CC2)cc(OC)c1OC` had an RP-LC retention time of 599 s.
To `CCC(=O)N(CCOC)CC(=O)N1CCc2sccc2C1COc1ccc(Cl)cc1` (stereo unspecified) belongs 907 s; to `COc1cccc(CNC(=O)c2cc3cn(C4CC4)cc3s2)c1OC`, 507 s.
Consider `CCN1CCCCc2cc(C(=O)NCC3CCN(CC(C)C)C3)sc21` (stereo unspecified), for which the RP-LC retention time turned out to be 718 s.
The same measure for `O=C(c1csc(N2CCN(c3ccccc3)CC2)n1)N1CCN(c2ccccn2)CC1`: 685 s; for `O=c1c(NCCc2ccc(Cl)cc2)nccn1-c1ccc2c(c1)OCO2`: 870 s; for `Cc1ccc(-n2c(=O)n(CC(=O)NCCN3CCN(C)CC3)c3cccnc32)cc1`: 589 s.
The same measure for `Cc1cccc(C)c1-n1nnc(C(=O)NCC2CCCO2)c1C` (stereo unspecified): 754 s; for `COc1ccc(Cl)cc1S(=O)(=O)N(C)CC1(C)CCOCC1`: 829 s.
To `CC(CCc1ccccc1)NC(=O)c1cc2sc(Cl)cc2n1C` (stereo unspecified) belongs 1170 s.
As for `CCc1ccc(-c2noc(CSc3nc4cc5c(cc4c(=O)n3Cc3ccncc3)OCO5)n2)cc1`, the RP-LC retention time worked out at 909 s.
To `Cc1ccccc1S(=O)(=O)N1CCC(N2CCN(Cc3ccccc3)C(=O)C2=O)CC1` belongs 826 s.
To `CCOC(=O)N1CCN(C(=O)CCc2csc(NC(=O)c3ccc(F)cc3)n2)CC1` belongs 713 s; to `CCOc1ccc(-n2nc(CO)c(C(=O)NC3CC3)n2)cc1`, 814 s; to `COc1cccc(Nc2c(-c3ccc(OC)c(OC)c3)nc3cnccn23)c1`, 794 s.
To `CCc1nc2cc(-c3noc(Cc4c[nH]c5ccccc45)n3)ccc2o1` belongs 1020 s; to `CCc1ccc(Nc2c(C(=O)N3CCOCC3)cnc3nc(C)ccc23)cc1`, 601 s; to `CCOCCCNC(=O)C1CCN(C2=NS(=O)(=O)C(c3ccc(CC)cc3)=C2C)CC1`, 810 s.
For the compound `Cc1ccc(NC(=O)N2CCC3(CC2)NC(=O)c2ccccc2O3)c(C)c1`, the RP-LC retention time was 750 s.
To `CN(CCc1noc(COc2ccc(F)cc2)n1)C(=O)Nc1ccc(Br)cc1` belongs 980 s.
To `Cc1ncc2c(n1)C[C@@H]1CC[C@H]2N1C(=O)c1ccc2c(c1)OCO2` belongs 639 s; to `COc1ccc(NS(=O)(=O)c2cc3n(c2)CCCNC3=O)cc1Cl`, 677 s.
The same measure for `Cc1cnc(C2CCC2)n1C1CCN(C(=O)C2(c3ccccc3)CC2)CC1`: 663 s.
As to `Cc1ccc(N2C(=O)CN(S(C)(=O)=O)CC2(C)C(=O)NCc2ccccc2)cc1C` (stereo unspecified), the RP-LC retention time stood at 758 s.
The same measure for `Cc1ccc(-n2c(N3CCCC(C(=O)NCC4CC4)C3)nc3ccsc3c2=O)cc1` (stereo unspecified): 805 s; for `CC(C)n1cc(S(=O)(=O)N2CCN(c3ccccc3)CC2)c2cccnc21`: 1070 s.
The same measure for `CC1CCN(c2ncnc3c2cnn3CC(=O)Nc2ccc(Cl)cc2)CC1`: 697 s; for `CCC(C)NC(=O)CCn1c(=O)c2ccccc2n2c(=O)n(Cc3ccccc3)nc12` (stereo unspecified): 856 s.
The same measure for `Cc1nc(-c2ccccc2)cc2nn(CC(=O)N3CCCc4ccccc43)c(=O)n12`: 1010 s; for `Cc1ccc(S(=O)(=O)N2CC3CN(C(=O)C4COc5ccccc5O4)CC(C2)O3)cc1` (stereo unspecified): 928 s; for `O=C(Nc1ccc(C(F)(F)F)cn1)c1cccc2cccnc12`: 1090 s.
With `O=C(Nc1ccc(F)cc1F)N1CCC(OC2CCN(Cc3ccccc3)CC2)CC1`, the RP-LC retention time is 656 s.
To `CCOC(=O)CN1N=C(C(=O)N2CCC(C)CC2)S(=O)(=O)c2ccccc21` belongs 888 s.
To `O=C(c1ccc(-c2ccsc2)nc1)N1CCN(C2CCCCC2)CC1` belongs 625 s; to `CCOC(=O)C1=C(CN2CC(C)CC(C)C2)NC(=O)NC1c1ccc(Cl)cc1` (stereo unspecified), 688 s.
`CC(C)Cc1ccc([C@@H](C)C(=O)NS(C)(=O)=O)cc1` returned an RP-LC retention time of 1070 s.
In the case of `CCOC(=O)c1cnc2c(-c3ccc(F)cc3)c(C)nn2c1N`, the RP-LC retention time amounted to 1020 s.
For the compound `O=C(Nc1cccc(Br)c1)C1CCN(c2cc(N3CCCC3)ncn2)CC1`, the RP-LC retention time is 722 s.
The same measure for `Cc1cc(NC(=O)CSc2nnc(Cc3ccccc3)o2)no1`: 716 s.
The same measure for `CC(CCc1ccccc1)NC(=O)CCc1c(-c2ccc(F)cc2)nc2ccccn12` (stereo unspecified): 727 s; for `O=C(Nc1ncc(Cc2ccc(F)cc2)s1)c1ccc([N+](=O)[O-])cc1`: 937 s; for `Cn1ccc2c(cc(C(=O)NCc3cccc(Cl)c3)n2C)c1=O`: 724 s.
Consider `CCCCCNC(=O)C1CCCN(c2ncc(-c3ccc(F)cc3)cn2)C1` (stereo unspecified), for which the RP-LC retention time amounted to 1060 s.
The compound `CCCNC(=O)C1CCCN(c2ccc(SCC(=O)Nc3cccc(C)c3C)nn2)C1` (stereo unspecified) yielded an RP-LC retention time of 665 s.
The compound `CCOCC(=O)Nc1ccc2c(c1)Sc1ncccc1C(=O)N2C(C)C` showed an RP-LC retention time of 764 s.
The same measure for `CCCOc1ccc(-c2csc(NC(=O)c3sc(C)nc3C)n2)cc1`: 1080 s.
The same measure for `COc1ccc(NC(=O)C2CCCN2S(=O)(=O)c2ccc3c(c2)CCCC(=O)N3)cc1Cl` (stereo unspecified): 787 s; for `COc1ccccc1COC(=O)C1=CN(Cc2ccccc2)S(=O)(=O)N=C1C`: 1130 s; for `CCOC(=O)C1=C(C)NC2=C(C(=O)c3ccccc32)C1c1ccc(OCC)cc1` (stereo unspecified): 718 s.
The same measure for `COc1ccc(-c2ccnn2-c2ccc(SCc3ccccc3F)nn2)cc1`: 1310 s.
Take `O=C(Nc1ccc(Br)cc1F)C1CCCN(C(=O)c2ccccc2F)C1` (stereo unspecified): the RP-LC retention time is 943 s.
